# Measurements published in patent publication US20260125357A1, “LACTATE ENHANCING COMPOUNDS AND USES THEREOF” (GLIAPHARM SA, priority 2022, published 2026).
# Tests used:
# [1] = test system: mice injected with streptozotocin; experiment: Inhibitory Avoidance in streptozotocin ICV injection model of Alzheimer's disease; format: in vivo, mouse; conditions: 1 day after training, vs Veh
# Description: Craniotomies are performed on isoflurane-anesthetized mice for injections of Veh or streptozotocin in cerebral ventricles (coordinates: −0.5 mm (to bregma), lateral+/−1.0 mm (to midline), ventral −2.2 mm (to dura)) (Kelliny S. et al., Molecular Neurobiology, 2021). A solution composed of Veh (0.9% NaCl) or streptozotocin (5 mg/kg) prepared in 1 μl artificial cerebrospinal fluid solution (aCSF, 20 mM citrate buffer, pH 4.2) is injected in both cerebral ventricles using Hamilton micro syringe at a constant speed of 100-200 nl/min. After injection, skin of the skull is sutured, and mice is monitored closely and receives analgesic treatment for at least 4 days. After mice had fully recovered from surgery, memory tests including Morris Water Maze (MWM), Inhibitory Avoidance (IA) and Novel Object Recognition (NOR), as described below, are performed. […]
# Inhibitory avoidance (IA) test is a well-established memory paradigm in rodents that measures contextual memory associated with a mild electrical footshock in a specific context (the dark compartment of the IA chamber). […] Memory retention was measured at 24 h after training by placing the mouse back into the lit compartment and recording its latency (in seconds) to enter the dark compartment. […]
# APOE4(+) transgenic mice = experiment: Morris Water Maze memory in APOE4(+) mouse model of Alzheimer's disease; format: in vivo; conditions: 30 mg/kg, 7 days after training
# Description: Mouse models carrying the APOE4 human allele have a decrease in metabolic gene expression and cerebral glucose uptake compared to APOE3-expressing model (Williams et al., 2020, neurobiol dis, 136:104742; Lin et al., 2015, J Cereb Blood Flow Metabl, 37(1):217-226; Alata et al., 2015, J Cereb Blood Flow Metab, 35(1):86-94. These physiological perturbations induce a brain hypometabolism, which recapitulates brain metabolic status observed in AD carriers of APOE4 allele. Male and female APOE4(+) and APOE3(+) (controls) transgenic mice are used at 3 months of age. Memory of APOE3(+) mice treated with Veh and APOE4 (+) mice treated with Veh or compound (2) at 10 mg/kg and 30 mg/kg is tested in the Morris Water Maze, as described below. Treatment is administered at each day of training, 30 minutes before the first training session. No treatment is administered during memory retention test.
# Morris Water Maze (MWM), a well-established spatial and contextual memory test, will be used. […] A number of parameters including the latency to find the platform, time spent around the platform, path efficiency, % time spent in each quadrant is recorded, using automated tracking software (Ethovision). The type of exploration (direct, random, scan of the area) is also recorded. […]
smiles,measurement,setting,value
"COc1cc2ccnc(Nc3ccc(S(C)(=O)=O)cc3)c2cc1OC [Compound 2, 6,7-dimethoxy-N-(4-methylsulfonylphenyl)isoquinolin-1-amine]",memory in the Inhibitory Avoidance,[1]; 10 mg/kg,significantly higher
same,memory in the Inhibitory Avoidance,[1]; 30 mg/kg,significantly higher
same,memory in the Morris Water Maze,APOE4(+) transgenic mice,significant increase of memory
